≈ marks a conversion by molar mass, not a printed value. Where a SMILES comes first, the peptide text is derived from it. [ ]: non-standard residue; d: D form. d2Nal = N[C@H](Cc1ccc2ccccc2c1)C(=O)O; Pip(4-aza) = O=C(O)[C@@H]1CNCCN1; dNMeF = CN[C@H](Cc1ccccc1)C(=O)O; Pip = O=C(O)[C@@H]1CCCCN1; dPip = O=C(O)[C@H]1CCCCN1
Experiments:
Vasopressin V2 receptor [1] = molecular target: T1, Vasopressin V2 receptor (Rattus norvegicus, UniProt Q00788); assay: Concentration required to displace 50% of [3H]arginine vasopressin from rat kidney medullary (AVP-[…] site)
T1 sequence (Q00788 whole entry): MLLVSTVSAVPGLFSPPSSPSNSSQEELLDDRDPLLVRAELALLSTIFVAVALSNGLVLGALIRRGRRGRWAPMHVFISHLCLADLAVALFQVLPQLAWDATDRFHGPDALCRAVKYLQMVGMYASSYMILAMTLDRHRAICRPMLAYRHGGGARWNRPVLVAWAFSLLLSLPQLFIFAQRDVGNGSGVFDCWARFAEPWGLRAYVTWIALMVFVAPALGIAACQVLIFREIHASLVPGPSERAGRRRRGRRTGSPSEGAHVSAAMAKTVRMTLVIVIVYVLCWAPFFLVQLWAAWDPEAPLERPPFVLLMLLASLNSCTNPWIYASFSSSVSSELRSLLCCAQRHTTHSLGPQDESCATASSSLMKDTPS

Vasopressin V1a receptor = Vasopressin V1a receptor (Rattus norvegicus, UniProt P30560); assay: Concentration required to displace 50% of [3H]arginine vasopressin from rat liver arginine vasopressin 1A (AVP-V1a) site.
Sequence of Vasopressin V1a receptor (P30560 whole entry): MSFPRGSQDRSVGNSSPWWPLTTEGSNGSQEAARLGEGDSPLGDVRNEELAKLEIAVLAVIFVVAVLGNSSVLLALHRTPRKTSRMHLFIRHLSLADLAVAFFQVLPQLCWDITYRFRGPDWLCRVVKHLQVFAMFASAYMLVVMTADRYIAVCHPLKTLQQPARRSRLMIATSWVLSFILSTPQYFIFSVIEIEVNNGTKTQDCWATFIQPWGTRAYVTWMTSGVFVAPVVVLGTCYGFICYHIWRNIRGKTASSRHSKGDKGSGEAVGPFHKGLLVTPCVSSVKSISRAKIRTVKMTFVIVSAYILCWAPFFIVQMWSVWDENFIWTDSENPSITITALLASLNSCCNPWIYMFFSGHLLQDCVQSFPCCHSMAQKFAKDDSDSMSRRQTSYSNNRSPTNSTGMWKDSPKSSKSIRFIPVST

[2] = molecular target: Vasopressin V1a receptor (Rattus norvegicus) (UniProt P30560); assay: Displacement of [3H]arginine vasopressin from rat liver (AVP-V1a site) at 10 uM
Sequence of Vasopressin V1a receptor (Rattus norvegicus) (P30560 whole entry, looked up): as the sequence (P30560 whole entry) above

[3] = molecular target: Vasopressin V2 receptor (Rattus norvegicus) (UniProt Q00788); assay: Displacement of [3H]arginine vasopressin from rat kidney medullary (AVP-V2 site) at 10 uM; type: tissue-based
Sequence of Vasopressin V2 receptor (Rattus norvegicus) (Q00788 whole entry): as the sequence (Q00788 whole entry) above

[4] = molecular target: T2, Oxytocin receptor (Rattus norvegicus) (UniProt P70536); assay: Inhibition of displacement of [3H]oxytocin from rat uterine receptor at 10 uM
T2 sequence (whole entry): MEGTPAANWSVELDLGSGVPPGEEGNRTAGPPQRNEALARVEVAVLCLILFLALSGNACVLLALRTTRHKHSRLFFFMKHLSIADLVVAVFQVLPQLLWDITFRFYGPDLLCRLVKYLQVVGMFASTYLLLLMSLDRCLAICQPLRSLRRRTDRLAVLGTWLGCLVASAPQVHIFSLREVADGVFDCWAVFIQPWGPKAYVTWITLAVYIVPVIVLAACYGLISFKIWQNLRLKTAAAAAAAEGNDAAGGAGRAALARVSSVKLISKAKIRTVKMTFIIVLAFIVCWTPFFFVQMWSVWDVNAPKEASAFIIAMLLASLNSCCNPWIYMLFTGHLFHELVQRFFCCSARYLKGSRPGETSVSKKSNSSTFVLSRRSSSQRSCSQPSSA

Rattus norvegicus [5] = species on record: Rattus norvegicus; assay: pA2 value by AVP (V1a) stimulated contraction of the isolated rat tail artery; type: functional; conditions: read-out: pA2 (converted)
Rattus norvegicus [6] = species on record: Rattus norvegicus; assay: Compound was evaluated for the inhibition of accumulation of total [3H]inositol phosphates stimulated by exposure of uterine slices from DES-pretreated rats to OT; type: functional
Rattus norvegicus [7] = species on record: Rattus norvegicus; assay: pA2 value was determined from regression analysis of log (dose ratio-1) vs -log [antagonist] (OT stimulated contractions in isolated uterus from DES-pretreated rats); type: functional; conditions: read-out: pA2 (converted)
[8] = Aqueous solubility was determined; type: physicochemical
Rattus norvegicus [9] = species on record: Rattus norvegicus; assay: pA2 value was determined from regression analysis of log (dose ratio-1) vs -log [antagonist] (isolated uterus from DES-pretreated rats); type: functional; conditions: read-out: pA2 (converted)
Rattus norvegicus [10] = assay: Dose required for 50% reduction of the contractile response of the uterus to OT (1 ug/kg, iv bolus) in DES-pretreated rats; type: functional
Vasopressin V2 receptor [11] = molecular target: T1, Vasopressin V2 receptor; assay: Ability to inhibit AVP stimulation of adenylate cyclase activity in the rat kidney medulla (AVP-V2) receptor
Vasopressin V2 receptor [12] = molecular target: T1, Vasopressin V2 receptor; assay: Inhibition of [3H]arginine vasopressin binding to AVP-V2 site in rat kidney medulla.; type: tissue-based
Rattus norvegicus [13] = species on record: Rattus norvegicus; assay: Compound was evaluated for the inhibition of accumulation of total [3H]inositol phosphates stimulated by exposure of the tissue to OT; type: functional
Oxytocin receptor [14] = molecular target: T3, Oxytocin receptor (Rattus norvegicus, UniProt P70536); assay: Concentration required to displace 50% of [3H]oxytocin from rat uterine receptor.
T3 sequence (P70536 whole entry): T2 sequence (whole entry)

Oxytocin receptor [15] = molecular target: T4, Oxytocin receptor (Homo sapiens, UniProt P30559); assay: Compound was evaluated for OT receptor affinity by displacement of [3H]OT from binding sites in uterine tissue taken from nonlabor pregnant women
T4 sequence (P30559 whole entry): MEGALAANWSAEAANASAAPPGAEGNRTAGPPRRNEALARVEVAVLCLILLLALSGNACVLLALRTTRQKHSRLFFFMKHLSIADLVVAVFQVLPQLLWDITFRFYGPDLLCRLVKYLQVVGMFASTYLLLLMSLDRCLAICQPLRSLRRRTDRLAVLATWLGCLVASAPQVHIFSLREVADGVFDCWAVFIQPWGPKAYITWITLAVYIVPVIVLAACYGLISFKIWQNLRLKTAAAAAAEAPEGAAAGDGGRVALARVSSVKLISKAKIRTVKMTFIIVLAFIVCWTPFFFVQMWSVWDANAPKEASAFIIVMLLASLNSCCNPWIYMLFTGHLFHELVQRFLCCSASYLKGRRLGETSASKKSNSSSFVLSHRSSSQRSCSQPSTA

Oxytocin receptor [16] = molecular target: T3, Oxytocin receptor; assay: Compound was evaluated for OT receptor affinity by displacement of [3H]OT from binding sites in uterine tissue taken from pregnant rats

Compound	IC50 (Vasopressin V1a receptor)	solubility [8]	IC50 (Vasopressin V2 receptor [12])	Kb (Rattus norvegicus [9])	AD50 (Rattus norvegicus [10])	further results
CC[C@H](C)[C@@H]1NC(=O)[C@H](C)NC(=O)[C@@H]2CCCN2C(=O)[C@@H](Cc2ccccc2)N(C)C(=O)[C@@H]2CCCCN2C(=O)[C@H]2CCCCN2C1=O						inhibition [2]: 0%; inhibition [3]: 4%; inhibition [4]: 0%
CC[C@H](C)[C@@H]1NC(=O)[C@@H](Cc2c[nH]c3ccccc23)NC(=O)[C@@H]2CCCN2C(=O)[C@@H](Cc2c[nH]cn2)NC(=O)[C@@H]2CCCCN2C(=O)[C@H]2CCCCN2C1=O (cyclo(I[dPip][Pip][dH]P[dW])) [listing 1 of 2 here]						Kb (Rattus norvegicus [5]): 871 nM; IC50 (Rattus norvegicus [6]): 67 nM; Kb (Rattus norvegicus [7]): 2.51 nM
CC[C@H](C)[C@@H]1NC(=O)[C@@H](Cc2c[nH]c3ccccc23)NC(=O)[C@@H]2CCCN2C(=O)[C@@H](Cc2c[nH]cn2)NC(=O)[C@@H]2CCCCN2C(=O)[C@H]2CCCCN2C1=O (cyclo(I[dPip][Pip][dH]P[dW])) [listing 2 of 2 here]	7400 nM	2000 µg/mL (≈ 2650 µM)	5200 nM			IC50 (Vasopressin V2 receptor [11]): 3100 nM
CC[C@H](C)[C@@H]1NC(=O)[C@@H](Cc2c[nH]c3ccccc23)NC(=O)[C@@H]2CCCN2C(=O)[C@@H](Cc2c[nH]cn2)NC(=O)[C@@H]2CCCCN2C(=O)[C@H]2CCC=NN2C1=O		1900 µg/mL (≈ 2520 µM)	1100 nM	1.51 nM	0.0903 mg/kg	IC50 (Rattus norvegicus [13]): 42 nM
CC[C@H](C)[C@@H]1NC(=O)[C@@H](Cc2ccc3ccccc3c2)NC(=O)[C@@H]2CCCN2C(=O)[C@@H](Cc2c[nH]cn2)NC(=O)[C@@H]2CCCCN2C(=O)[C@H]2CCCCN2C1=O (cyclo(I[dPip][Pip][dH]P[d2Nal]))	2600 nM	1500 µg/mL (≈ 1960 µM)	910 nM	2.95 nM	0.102 mg/kg	Kb (Rattus norvegicus [5]): 282 nM; IC50 (Vasopressin V2 receptor [11]): 810 nM; IC50 (Rattus norvegicus [13]): 40 nM; IC50 (Oxytocin receptor [14]): 2.2 nM; Ki (Oxytocin receptor [15]): 5.1 nM; Ki (Oxytocin receptor [16]): 0.7 nM

Now from value to compound, other results behind:

IC50 (Vasopressin V1a receptor)	solubility [8]	IC50 (Vasopressin V2 receptor [12])	Compound	Kb (Rattus norvegicus [9])	AD50 (Rattus norvegicus [10])	further results
1600 nM			CC[C@H](C)[C@@H]1NC(=O)[C@@H](Cc2c[nH]c3ccccc23)NC(=O)[C@@H]2CCCN2C(=O)[C@@H](Cc2ccccc2)N(C)C(=O)[C@H](CCCCN)NC(=O)[C@H]2CCCCN2C1=O (cyclo(I[dPip]K[dNMeF]P[dW]))			IC50 (Vasopressin V2 receptor [1]): 410 nM
800 nM	1500 µg/mL (≈ 2020 µM)		CC[C@H](C)[C@@H]1NC(=O)[C@@H](Cc2ccccc2)NC(=O)[C@@H]2CCCN2C(=O)[C@@H](Cc2ccccc2)N(C)C(=O)[C@H](CCCN)NC(=O)[C@H]2CCC=NN2C1=O	3.39 nM	0.0716 mg/kg	
32000 nM	1400 µg/mL (≈ 1790 µM)	690 nM	CC[C@H](C)[C@@H]1NC(=O)[C@@H](Cc2c[nH]c3ccccc23)NC(=O)[C@@H]2CCCN2C(=O)[C@@H](Cc2ccccc2)N(C)C(=O)[C@@H]2CNCCN2C(=O)[C@H]2CCCCN2C1=O (cyclo(I[dPip][Pip(4-aza)][dNMeF]P[dW]))	2.57 nM	0.101 mg/kg	IC50 (Oxytocin receptor [14]): 8.4 nM; Ki (Oxytocin receptor [15]): 4.5 nM; Ki (Oxytocin receptor [16]): 3.4 nM

Source: ChEMBL document CHEMBL1125324, “Development of a novel class of cyclic hexapeptide oxytocin antagonists based on a natural product” (J Med Chem, 1992)
